Assay results reported in ChEMBL document CHEMBL6153048, “Synthesis and pharmacological evaluation of natural product diphyllin derivatives against head and neck squamous cell carcinoma” (Eur J Med Chem, 2025).

Assays:
A549 = experiment: Cytotoxicity against human A549 cells incubated for 72 hrs by MTT assay; format: functional, cell-based; details: A549, 72 h
CAL-27 [1] = experiment: Induction of apoptosis in human CAL-27 cells assessed as apoptotic cells at 10 nM incubated for 72 hrs by Annexin V-FITC/propidium iodide staining based flow cytometry analysis (reference value: 10.29%); format: functional
CAL-27 [2] = experiment: Antitumor activity against human CAL-27 cells xenografted in BALB/c mouse model assessed as reduction in tumor weight at 0.3 mg/kg, iv treated four times a week for 30 days; format: functional; design: scale not given: the % may be the effect or the level left; details: time 30 day
CAL-27 [3] = experiment: Induction of apoptosis in human CAL-27 cells assessed as apoptotic cells at 100 nM incubated for 72 hrs by Annexin V-FITC/propidium iodide staining based flow cytometry analysis (reference value: 10.29%); format: functional
CAL-27 [4] = experiment: Induction of apoptosis in human CAL-27 cells assessed as early apoptotic cells at 1 nM incubated for 72 hrs by Annexin V-FITC/propidium iodide staining based flow cytometry analysis (reference value: 7.74%); format: functional
CAL-27 [5] = experiment: Induction of apoptosis in human CAL-27 cells assessed as late apoptotic cells at 10 nM incubated for 72 hrs by Annexin V-FITC/propidium iodide staining based flow cytometry analysis (reference value: 2.57%); format: functional
CAL-27 [6] = experiment: Induction of apoptosis in human CAL-27 cells assessed as early apoptotic cells at 1 nM incubated for 72 hrs by Annexin V-FITC/propidium iodide staining based flow cytometry analysis (reference value: 9.16%); format: functional
CAL-27 [7] = experiment: Induction of apoptosis in human CAL-27 cells assessed as late apoptotic cells at 100 nM incubated for 72 hrs by Annexin V-FITC/propidium iodide staining based flow cytometry analysis (reference value: 2.57%); format: functional
CAL-27 [8] = experiment: Induction of apoptosis in human CAL-27 cells assessed as early apoptotic cells at 1000 nM incubated for 72 hrs by Annexin V-FITC/propidium iodide staining based flow cytometry analysis (reference value: 9.16%); format: functional
CAL-27 [9] = experiment: Induction of apoptosis in human CAL-27 cells assessed as late apoptotic cells at 1 nM incubated for 72 hrs by Annexin V-FITC/propidium iodide staining based flow cytometry analysis (reference value: 2.57%); format: functional

SMILES	IC50 (A549) [nM]	Activity (CAL-27 [1]) [%]	Activity (CAL-27 [2]) [%]	Activity (CAL-27 [3]) [%]	Activity (CAL-27 [4]) [%]	Activity (CAL-27 [5]) [%]	Activity (CAL-27 [6]) [%]	Activity (CAL-27 [7]) [%]	Activity (CAL-27 [8]) [%]	Activity (CAL-27 [9]) [%]
COc1cc2c(O[C@@H]3O[C@@H]4CO[C@@H](c5ccsc5)O[C@H]4[C@H](O)[C@H]3O)c3c(c(-c4ccc5c(c4)OCO5)c2cc1OC)C(=O)OC3	117	41.84	34	50.9	4.74					
COc1cc2c(O)c3c(c(-c4ccc5c(c4)OCO5)c2cc1OC)C(=O)OC3 [DIPHYLLIN]						1.34	2.68	2.58	12.06	5.83
